Test results taken from article PMC3230703 (Journal of molecular biology, 2011).

Target: GBSSrtC1 (SAG2603 V/R sortase C1) (Streptococcus agalactiae, UniProt Q8E0S7)
Assay: NMR
Type: binding
Conditions: irreversible cysteine protease inhibitor; in solution

For `CC(C)C[C@H](NC(=O)[C@H]1O[C@@H]1C(=O)O)C(=O)NCCCCN=C(N)N` [E64], the “NMR (results not shown)” value was “inhibitors MTSET and E64 in solution was confirmed by mass spectrometry and NMR, respectively”.
